Test results reported in US8329230B2, “Natural hair care composition, methods for obtaining the same and use thereof” (priority 2004, dated 2012).
Entries after “also recorded” stand apart in the source; their conditions may differ.

Legend:
[1] = tested on: Cladosporium cladosporioides (Fres.) de Vries; details: cited from earlier work
male pattern baldness = details: Phytother. Res. 15, 331-36, 2001; cited from earlier work
[2] = tested on: murine hair epithelial cells; details: Phytother. Res. 15, 331-36, 2001; cited from earlier work
heart rate = details: oral; cited from earlier work
[3] = tested on: chemotherapy induced alopecia; assay: Chemotherapeutic agent (cyclophosphamide) induced alopecia model, topical extracts; format: in vivo, rat pups of Sprague-Dawley strain
Description: Eight-day old rat pups of Sprague-Dawley strain of either sex, bred in Experimental Animal Facility of R&D Center, The Himalaya Drug Company, were used for the experiment. The animals were maintained at 22±3° C., 50-60% of humidity, 12 hours light and dark cycle.
Screening of Extracts in Chemotherapeutic Agent Induced Alopecia Model:
Three Groups of 8 rat pups are used. Group I served normal control and received saline at a dose of 10 ml/kg i.p. Group II & Group III animals received Cyclophosphamide (CP) at a dose of 50 mg/kg i.p. as a single dose. Test extracts PCPB-1 to PCPB-10, PCPB-1P to PCPB-10P and PCPB-1S to PCPB-10S were applied topically to Group III animals everyday from day one after Cyclophosphamide administration till the end of the study. On the 12th day of post Cyclophosphamide injection, the animals were graded for alopecia as given below.
2+—Moderately severe alopecia with more than 50% hair loss
3+—Severe and total alopecia.

COc1ccc2c(c1)O[C@H]1c3ccc(O)cc3OC[C@@H]21 [(−)-medicarpin, (−)-3-hydroxy-9-methoxy ptero carpan]
anti-fungal activity [1]: active

Oc1cc(O)c2c(c1)O[C@H](c1ccc(O)c(O)c1)[C@H](O)[C@H]2c1c(O)cc(O)c2c1O[C@H](c1ccc(O)c(O)c1)[C@H](O)C2 [Procyanidin B-2]
potential as cure for male pattern baldness (male pattern baldness): showed potential as promising cure
growth promoting effect on hair epithelial cells [2]: acts as growth promoting factor

COc1ccc2c(c1)OC1c3ccc(OC(C)=O)cc3OCC21 (single isomer, unassigned; (-)) [(−)-medicarpin acetate]
anti-fungal activity [1]: active

Nc1cc(N2CCCCC2)nc(N)[n+]1[O-] [Minoxidil]
effect on heart rate (heart rate): reported to affect heart rate in some patients

O=P1(N(CCCl)CCCl)NCCCO1 (stereo not drawn) [CP, Cyclophosphamide]
hair growth, stereosome photograph ([3]; figure legends FIGS. 2, 3): scanty hairs
alopecia, appearance of rat pups ([3]; figure legends FIGS. 5, 6): high degree of alopecia
hair follicles, photomicrograph of skin section ([3]; figure legends FIGS. 8-10): degenerating hair follicles with decrease in their numbers; also recorded: degenerating hair follicles with epidermal down growth
alopecia grade, Mean SEM ([3]; mean ± SEM of 8 rat pups, graded 0 to 3+ on 12th day post CP): 2.88 ± 0.13
